Experimental data as given in patent US20250082577A1, “POLYMER BEADLET COMPOSITIONS AND METHODS OF USE THEREOF FOR IMPROVED STABILITY, BIOAVAILABILITY & SUSTAINED RELEASE” (SpecNova LLC, priority 2023, published 2025).

Experiments:
[1] = cited from earlier work
[2] = whole-body creatine retention from 24-hour urine, double-blind randomized crossover study; settings: 2 x 5 g oral, 8 hours apart (total 10 grams), fifteen females and males
Method: Participants adhered to a plant-based protein diet prior to each testing session. […] Participants were then randomly assigned to ingest capsules containing 5 g of CrM or 5 g of CrM prepared in beadlets (CrM-Bead). […] Participants repeated the experiment after a seven-day washout while ingesting the crossover supplement, i.e. the CrM-Bead group was given CrM and the CrM group was given Crm-Beads. Whole-body creatine retention was determined by subtracting CrM intake from the difference between post-supplementation urine creatine content and expressed in percent retention.

CN(CC(=O)O)C(=N)N.O [CrM, creatine monohydrate]
time to return to baseline in the blood after oral ingestion [1]: 4 to 5 h | 24-hour whole-body creatine retention [2]: 81.8%±11.4%
